Assay results reported in patent publication US20040063745A1, “2-amino-4-(pyridin-2-yl)-thiazole derivatives as transforming growth factor beta (tgf-beta) inhibitors” (priority 2001, published 2004).

Test system: TAG-β signalling (PAI-1 promoter, HepG2 cells)
Experiment: Assay 1: PAI-1 promoter luciferase reporter assay in HepG2 cells exposed to TAG-β
Format: cell-based
Conditions: for IC50: Homo sapiens, HepG2
Method: The assay was performed in HepG2 cells stably transfected with the PAI-1 promoter (known to be a strong TAG-β responsive promoter) linked to a luciferase (firefly) reporter gene. The compounds were selected on their ability to inhibit luciferase activity in cells exposed to TAG-β. In addition cells were transfected with a second luciferase (Renilla) gene which was not driven by a TAG-β responsive promoter and was used as a toxicity control.
(96 well-)microplates are seeded, using a multidrop apparatus, with the stably transfected cell line at a concentration of 35000 cells per well in 200 μl of serum-containing medium. These plates are placed in a cell incubator.
18 to 24 hours later (Day 2), cell-incubation procedure is launched. Cells are incubated with TAG-β and a candidate compound (TAG-β inhibitor) at concentrations in the range 50 nM to 10 μM (final concentration of DMSO 1%). The final concentration of TAG-β(rhTGFβ-1) used in the test is 1 ng/mL. Cells are incubated with a candidate compound 15-30 mins prior to the addition of TAGβ. The final volume of the test reaction is 150 μl. Each well contains only one candidate compound and its effect on the PAI-1 promoter is monitored.
Columns 11 and 12 are employed as controls. Column 11 contains 8 wells in which the cells are incubated in the presence of TAGβ, without a candidate compound. Column 11 is used to determine the ‘reference TAG-β induced firefly luciferase value’ against which values measured in the test wells (to quantify inhibitory activity) may be compared. In wells A12 to D12, cells are grown in medium without TAG-β. The firefly luciferase values obtained from these positions are representive of the ‘basal firefly luciferase activity’. In wells E12 to H12, cells are incubated in the presence of TAG-β and 500 μM CPO (Cyclopentenone, Sigma), a cell toxic compound.
12 to 18 hours later (day 3), the luciferase quantification procedure is launched. The following reactions are performed using reagents obtained from a Dual Luciferase Assay Kit (Promega). Cells are washed and lysed with the addition of 10 μl of passive lysis buffer (Promega). Following agitation (15 to 30 mins), luciferase activities of the plates are read in a dual-injector luminometer (BMG lumistar). For this purpose, 50 μl of luciferase assay reagent and 50 μl of ‘Stop & Glo’ buffer are injected sequentially to quantify the activities of both luciferases. The mean Luciferase activity value obtained in wells A11 to H11 (Column 11, TAG-β only) is considered to represent 100% and values obtained in wells A12 to D12 (cells in medium alone) gives a basal level (0%). For each of the compounds tested, a concentration response curve is constructed from which an IC50 value can be determined graphically.

SMILES | firefly and renilla luciferase activities relative to column 11 (TAG-β only) (500 μM CPO with TAG-β, toxicity control wells E12 to H12) | IC50
O=C1C=CCC1 [CPO, Cyclopentenone, reference compound] | around 50% | –
Nc1nc(-c2ccccn2)c(-c2ccc3ncccc3n2)s1 [Example 2, 5-([1,5]Naphthyridin-2-yl)4-pyridin-2-yl-1,3-thiazol-2-amine] | – | ≤ 5 µM
Nc1nc(-c2ccccn2)c(-c2ccnc3ccccc23)s1 [Example 1, 4-(Pyridin-2-yl)-5-quinolin-4-yl-1,3-thiazol-2-amine] | – | ≤ 5 µM
Cc1cccc(-c2nc(N)sc2-c2ccc3ncccc3n2)n1 [Example 3, 4-(6-Methyl-pyridin-2-yl)-5-([1,5]naphthyridin-2-yl)-1,3-thiazol-2-amine] | – | ≤ 5 µM
